Data reported in US11732018B2, “Cancer antigen helper peptide” (priority 2009, dated 2023).
Ends that are not written are not given here.

Legend:
[1] = system: spleen cells of immunized mice; test: WT1 peptide-specific cell lines, cell proliferation ability (3H incorporation); assay type: cell-based, mouse; settings: for proliferation reaction with MHC class I antibody or MHC class II antibody added (3H incorporation): 4th stimulation with peptide-pulsed stimulator, antibody added to the culture solution, FIG. 2A-2C; for proliferation reaction in response to stimulator pulsed with the peptide (3H incorporation): spleen cells of mice immunized with the same peptide, 4th stimulation with irradiated peptide-pulsed spleen cells of non-immunized mice, FIG. 1A-1C
Description: First, the above WT1 peptides were emulsified with a Freund's incomplete adjuvant (Montanide ISA 51), and mice were intradermally inoculated with each WT1 peptide in an amount corresponding to 100 μg/mouse. The immunization was carried out 3 times at intervals of one week, the spleen was removed after 1 week of the final immunization, and spleen cells were prepared. The spleen cells were stimulated 3 times at intervals of 10 days using spleen cells of non-immunized mice, which were pulsed with the same WT1 peptide as that used for immunization of each mouse and irradiated, as a stimulator. Then, the 4th stimulation was carried out using spleen cells of non-immunized mice, which were pulsed with each peptide (WT13 5, WT18 6 or WT12 9 4 peptide) as shown in Table 7 and irradiated, as a stimulator, and proliferation reaction in response to each stimulator was measured by a ^3H incorporation experiment. An OVA (ovalbumin) peptide irrelevant to WT1 peptides was used as a control peptide. As a result, mouse spleen cells immunized with a WT13 5 peptide, a WT18 6 peptide or a WT12 9 4 peptide each responded to the stimulator pulsed with a WT13 5 peptide, a WT18 6 peptide or a WT12 9 4 peptide, and proliferated (FIG. 1A to 1C).
As described above, spleen cells were stimulated in vitro 3 times at intervals of 10 days using spleen cells of non-immunized mice, which were pulsed with each WT1 peptide and irradiated. When the 4th stimulation was then carried out using spleen cells of non-immunized mice, which were pulsed with each peptide described above and irradiated, as a stimulator, and proliferation reaction was measured, an MHC class I antibody (D^b antibody) or an MHC class II antibody (Ab antibody) was added to the culture solution and ^3H incorporation was measured.

[2] = system: C1498 cells; test: Proliferation reaction of WT1 peptide-specific cell lines to C1498 stimulator cells (3H incorporation); assay type: cell-based, mouse; settings: irradiated C1498 stimulators; FIG. 3
Description: As described above, spleen cells were stimulated in vitro 3 times at intervals of 10 days using spleen cells of non-immunized mice, which were pulsed with each WT1 peptide and irradiated. Then, the proliferation reaction was measured by ^3H incorporation using irradiated C1498 cells not expressing any WT1 protein, C1498 cells pulsed with each of the above WT1 peptides, or C1498 cells expressing a WT1 protein by introduction of a WT1 gene, as a stimulator.

[3] = system: RMAS cells pulsed with a WT1126 peptide (MHC class I); test: WT1-specific immune response in spleen cells of tumor-implanted mice (cytotoxic activity, WT1 tetramer FACS); assay type: in vivo, mouse
Description: Next, mice were dissected on the 29th day after starting the above experiment, the spleen was excised, and a WT1-specific immune response was analyzed using spleen cells. Briefly, the spleen was excised when mice of the WT13 5 helper peptide (MHC class II)-immunized group and the control group were dissected, and spleen cells were prepared. The spleen cells were stimulated once with a WT11 2 6 peptide (MHC class I), and on the 6th day after the stimulation, cytotoxic activity of the spleen cells was measured using RMAS cells pulsed with a WT11 2 6 peptide (MHC class I) as a target cell. As a control, the cytotoxic activity of the spleen cells was measured using RMAS cells as a target cell. […] The WT1-specific cytotoxic T cells were not induced in one mouse. Also, it was clear that the induction of the WT1-specific cytotoxic T cells was lower as compared with the WT13 5 helper peptide (MHC class II)-immunized group (FIGS. 9 and 10).
Next, specific cytolysis was analyzed in mice of the above WT135 helper peptide (MHC class II)-immunized group and control group. […] Also, the above-prepared spleen cells and a fluorescence-labeled WT1 tetramer (H-2 Db WT1 Tetramer-[…]-PE) were incubated at 4° C. for 20 minutes, washed, then stained with fluorescence-labeled CD3 and CD8 antibodies, again washed, and analyzed by FACS. […]

Sequence	proliferation reaction with MHC class I antibody or MHC class II antibody added (3H incorporation) [1]	proliferation reaction in response to stimulator pulsed with the peptide (3H incorporation) [1]	proliferation reaction in response to C1498 cells pulsed with peptide or expressing a WT1 protein (3H incorporation) [2]	WT1-specific cytotoxic T cells (specific cytolysis; CD3-, CD8- and WT1 tetramer-positive cells) versus control group ([3]; spleen cells of tumor-implanted mice, p<0.05, FIG. 11)	induction of WT1-specific cytotoxic T cells (cytotoxic activity of spleen cells) ([3]; spleen excised on 29th day, stimulated once with WT1126 peptide, measured on 6th day, FIG. 9)
EQCLSAFTLHFSGQFTG (listed as Mus musculus) [WT186]	suppressed by the addition of an MHC class II antibody	proliferated	produced by an intracellular process of an endogenous WT1 protein and displayed on an MHC class II molecule		
FRGIQDVRRVSGVAPTLVR (listed as Mus musculus) [WT1294]	suppressed by the addition of an MHC class II antibody	proliferated	produced by an intracellular process of an endogenous WT1 protein and displayed on an MHC class II molecule		
WAPVLDFAPPGASAYGSL [WT135]				significantly high	induced in all 4 mice
